{"source": "patent US20220087247A1", "about": "“MOUSE REPELLENTS, DEVICES, AND METHODS OF USING SUCH” (priority 2020, published 2022)", "key": {"[1]": {"system": "mosquitoes, beetles, and termites", "settings": "known from prior knowledge; cited from earlier work"}, "[2]": {"system": "female house mice, Mus musculus (strain: CD-1)", "assay": "Two-choice T-tube olfactometer bioassay: deterrence from approaching and feeding on a food bait", "type": "in vivo", "settings": "Experiments 1 to 12; single test stimulus 100 μl or 100 mg on cotton ball next to food bait vs unscented chamber", "source_text": "Female house mice, Mus musculus (strain: CD-1®), were obtained from Charles River Laboratories Ltd (Saint-Constant, QC J5A 2E7, Canada) and cared for by Animal Care Services of Simon Fraser University (“SFU”). On arrival, mice were assigned to four groups of five female mice each. Each group was accommodated in cages (50 cm×40 cm×20 cm) lined with commercial corn cob bedding (Anderson's Bed o'cobs, The Andersons Inc. Maumee, Ohio 43537, USA), provided with Nalgene toys, running wheels (Jamieson's Pet Food Distributors, Ltd, Delta, BC V4G 1C9, Canada), and provisioned with commercial rodent food (LabDiet® Certified Rodent Diet, LabDiet®, St Louis, Mo. 63144, USA) as well as water ad libitum. Cages were maintained at a temperature of 21° C. and a relative humidity of 50%. A reverse photoperiod (12 hours light; 12 hours dark) was maintained to facilitate behavioral bioassays during normal working hours. […]\nFIG. 3 depicts data obtained by additional testing of those plant essential oils found most promising in pre-screening experiments (Experiments 2, 5, 8, 9, and 11), running a total of 8 replicates for each of experiments 2, 5, 8, 9 and 11. First-choice, first-fed, and time-spent data were analyzed using g-tests and Student's t-tests, respectively, for these experiments. […]"}}, "data": [{"compound": "C=CCc1ccc(O)c(OC)c1", "note": "[Eugenol]", "values": [{"measurement": "repellency to insects", "setting": "[1]", "value": "repellent"}]}, {"compound": "CC1CCC(C(C)C)C(O)C1", "note": "(centres unmarked) [menthol, Menthol]", "values": [{"measurement": "first fed (scented chamber fed in first by mice)", "setting": "[2]", "value": "never fed in first"}]}]}
